Holding throughout (assay type): cell-based, human
One assay has as its system Bmi-1 mRNA. In words: Bmi-1 mRNA in mammospheres by real-time RT-PCR. To be noted: for block of Shh-induced Bmi-1 expression: Shh with Cyclopamine or GSI. For orientation: Quantitative PCR measures a nucleic acid by following its amplification.
For assay [1], the system named is PTCH1, Gli1, Gli2 and HES1 mRNA. Put plainly: Hh and Notch pathway gene mRNA in mammospheres by real-time RT-PCR. Particulars: for block of Shh-induced PTCH1, Gli1, Gli2 and HES1 expression: 3 μg/ml Shh with 300 nM Cyclopamine or 5 μM GSI; for block of DSL-induced HES1, PTCH1, Gli1 and Gli2 expression: 10 μM DSL with 5 μM GSI or 300 nM Cyclopamine.
Experimental: Single cells from epithelial organoids were plated in 6-well ultra-low attachment plates (Coming) at a density of 100,000 viable cells/ml. Cells were cultured in 2 ml of a serumfree MEBM per well. […] Cells were incubated for 7 days in the presence of different treatments as follows. For the treatment with Hedgehog agonists and antagonist, Shh was used at 1.5 μg/ml, 3 μg/ml and 6 μg/ml in the presence or absence of 300 riM of CP or 5 μM of GSI. CP was used at 150 nM, 300 nM and 600 nM concentrations, and the control was 12% 1×PBS with 0.06% BSA. For the treatment with Notch agonists and antagonist, DSL was used at 10 μM in the presence or absence of 5 μM of GSI or 300 nM of CP, and the controls consisted of 10 μM of scrambled Notch peptide. All treatments were continued for 10 days, with agonists and antagonists added every two or three days when medium was changed.
Mammospheres were then collected for in vitro self-renewal assays and Real-time quantitative RT-PCR. For reverse-transcriptase reactions, 1 μg of total RNA from mammospheres or differentiated cells on collagen-coated plates was reverse transcribed with 200 U M-MLV Reverse Transcriptase (GibcoBRL) at 42° C. for 1 hour in the presence of 5 mM each of dATP, dCTP, dGTP and dTTP, 4 μl 5× 1 st strand buffer (GibcoBRL), 0.01M DDT, 1 U RNA Guard RNase inhibitor (GibcoBRL), and 2.5 µM random primers in a total volume of 20 μl. The reaction was terminated by heating to 95° C. for 3 minutes. Real-time quantitative PCR (TaqMan™) primers and probes were purchased from AppliedBiosytems as Assays-on-Demand™ Gene Expression Products. Real-time PCRs were performed following the supplier's instructions (Applied Biosystems). 20 μl of PCR mixture contained 10 μl of 2× Taqman™ universal PCR Master Mix, 1 μl of 20× working stock of gene expression assay mix, and 50 ng of RNA converted cDNA. PCR was performed in a ABI PRISM® 7900HT sequence detection system with 384-Well block module and automation accessory (Applied Biosystems) by incubation at 50° C. for 2 min and then 95° C. for 10 min followed by 40 amplification cycles (15 s of denaturation at 95° C. and 1 min of hybridization and elongation at 60° C.). The reaction for each sample was performed in quadruplicates. Fluorescence of the PCR products was detected by the same apparatus. The number of cycles that it takes for amplification plot to reach the threshold limit, the Ct-value was used for quantification. RPLP0 was used for normalization.
In order to determine whether activation of the Notch pathway could affect Hh targets, Notch signaling was activated by utilizing the DSL ligand which binds to all Notch receptors (Dontu et al., 2004).
Assay [2] deals with mammary stem/progenitor cells in mammospheres. In words: Primary and secondary mammosphere formation (in vitro self-renewal assay).
Assay [3] concerns mammosphere branching morphogenesis. In words: Mammosphere branching morphogenesis in 3-D Matrigel culture. Particulars: 300 nM Cyclopamine.
Experimental: Briefly, 30 mammospheres were suspended in 1 ml of BD Matrigel™ Matrix (Cat. 354234, BD Biosciences, Palo Alto, Calif.) and Ham's F-12 medium (BioWbittaker) with 5% serum at a ratio of 1:1, and plated 1 ml of the mixture into one well of 24-well cold plates and each group of mammospheres was performed in quadruplicates. After the matrigel was solidified, 1 ml of Ham's F-12 medium (BioWhittaker) with 5% serum was added to the top of the matrigel. The experiments were repeated with mammospheres derived from at least three different patients.

Where two headings read alike, the source gives them in different places. Square brackets hold non-standard residues; d marks the D form. Peptide text beside a SMILES is read from it. * marks the point of attachment. Nle = CCCC[C@H](N)C(=O)O; Cbz = O=C(OCc1ccccc1)*

On to `CCCC[C@@H](C=O)NC(=O)[C@H](CC(C)C)NC(=O)[C@H](CC(C)C)NC(=O)OCc1ccccc1` [GSI, Z-Leu-Leu-Nle-CHO] (Cbz-Leu-Leu-[Nle]-aldehyde), for which, in the assay with Bmi-1 mRNA (DSL with GSI or Cyclopamine), the “block of DSL-induced Bmi-1 expression” value is “completely blocked”. The “block of Shh-induced Bmi-1 expression” value in the assay on Bmi-1 mRNA is on record as “not”. Also, in assay [1], the “block of Shh-induced PTCH1, Gli1, Gli2 and HES1 expression” value is listed as “not”; the “block of DSL-induced HES1, PTCH1, Gli1 and Gli2 expression” value is reported as “completely blocked”. For the same compound, in assay [2] (3 μg/ml Shh with 300 nM Cyclopamine or 5 μM GSI), the “block of the Shh effect on mammary stem cell self-renewal” value is “did not block”. Moreover, in assay [2] (10 μM DSL with 5 μM GSI or 300 nM Cyclopamine), the “block of DSL-stimulated mammary stem cell self-renewal” value is given as “blocked”.

Consider `CC1=C2C[C@H]3[C@@H](CC=C4C[C@@H](O)CC[C@@]43C)[C@@H]2CC[C@]12O[C@@H]1C[C@H](C)CN[C@H]1[C@H]2C` [Cyclopamine], for which the “block of Shh-induced Bmi-1 expression” value with Bmi-1 mRNA is “blocked”. Besides, in assay [3], the “effect on branch formation” value is on record as “almost completely blocked branch formation”. For the same compound, in assay [1], the “block of Shh-induced PTCH1, Gli1, Gli2 and HES1 expression” value was “partially blocked”; the “block of DSL-induced HES1, PTCH1, Gli1 and Gli2 expression” value was “partially blocked and not”. Further, in assay [2], the “Cyclopamine inhibition of primary mammosphere formation on addition of Shh” value is listed as “reversal of inhibition”, the “Cyclopamine inhibition of secondary mammosphere formation on addition of Shh” value was “reversed”, the “block of DSL-stimulated mammary stem cell self-renewal” value is given as “not” and the “block of the Shh effect on mammary stem cell self-renewal” value is listed as “blocked”. Also, in assay [2], the “decrease of average cell number in primary mammospheres vs control” value is 51%, the “decrease of average cell numbers per secondary mammosphere” value was found to be 56%, the “decrease of primary mammosphere formation vs control” value was 45% and the “decrease of secondary mammospheres vs control” value is recorded as 54%. Also, in assay [2], the “effect of Cyclopamine on the effects of Gli1 or Gli2 overexpression” value is listed as “unaffected” and the “effects on mammosphere formation, lowest dose” value is recorded as “no effects”.

These data come from US20080019961A1, “Hedgehog signaling pathway antagonist cancer treatment” (Regents of the University of Michigan, priority 2006, published 2008).
